One compound from patent US11306054B2, “Propanediol monoacetate mononitrate” (DSM IP ASSETS B.V., priority 2017, dated 2022) can be followed below.

Each structure is given as a SMILES string.

In the test the test system is S. epidermidis, C. xerosis, M. furfur, P. Acnes. As to the kind of experiment: Antimicrobial efficacy, challenge test, overall conclusion on the strains of table 1. The test is classed as cell-based. The following applies: conclusion from table 1; almost comparable to Phenonip. How it is done:
The antimicrobial efficacy of propanediol monoacetate mononitrate (PDMAMN) is assessed in analogy to the regulatory challenge test method (NF EN ISO11930). The following test solutions were tested • 1. Inv 1: 400 mg PDMAMN in 1 ml PEG 400 were diluted with 40 mL physiological serum (0.85% NaCl) containing 7% Ethanol (˜1% of PDMAMN) • 2. Inv 2: 200 mg PDMAMN in 1 ml PEG 400 were diluted in 40 mL physiological serum (0.85% NaCl) containing 7% Ethanol (˜0.5% of PDMAMN) • 3. Inv 3: 40 mg 3-PDMAMN in 1 ml PEG 400 were diluted in 40 mL physiological serum (0.85% NaCl) containing 7% Ethanol (˜0.1% of PDMAMN) • 4. Ref 1: Physiological serum (0.85% NaCl) • 5. Ref 2: 1 mL PEG 400+40 mL physiological serum (0.85% NaCl) containing 7% Ethanol • 6. Control: 0.5% Phenonip in physiological serum (0.85% NaCl)
All test solutions were deposed in 96-deep well plates (1.6 ml/well). The wells were contaminated with the respective bacterial or the fungal strains as outlined in table 1*10^5 to 1*10^6 cfu/ml for the bacteria and 1*10^4 to 1*10^5 cfu/ml for the fungi to obtain the initial contamination as outlined in table 1, Zero. After the contamination, each well was thoroughly mixed to ensure a homogeneous distribution of the microorganism. Then each plate was incubated at 22° C. for 24 h. The counting of the (remaining) population was carried out 24 h after contamination.

As for `CC(=O)OCCCO[N+](=O)[O-]` [propanediol monoacetate mononitrate, 1,3-propanediol monoacetate mononitrate], the antimicrobial activity result was “excellent antimicrobial activity”.
